Test results from patent publication US9790233B2, “Compositions and methods of modulating 15-PGDH activity” (CASE WESTERN RESERVE UNIVERSITY, priority 2012, dated 2017).
Where two headings read alike, the source gives them in different places.

Key:
[1] = tested on: wild-type mouse bone marrow; test: Hematopoietic colonies from bone marrow treated ex vivo; assay type: cell-based; settings: 1 uM, ex vivo on ice 2 hours
Text: Treated marrow is again then plated into methylcellulose for counting of hematopoietic colonies.

[2] = tested on: 15-PGDH luciferase fusion construct in LS174T reporter cell line; test: 15-PGDH-luciferase fusion gene reporter induction, LS174T cells; assay type: cell-based; settings: Homo sapiens
[3] = tested on: 15-PGDH luciferase fusion construct in V9m reporter cell line; test: 15-PGDH-luciferase fusion gene reporter induction, V9m cells; assay type: cell-based; settings: % induction of luciferase activity over basal level
[4] = tested on: 15-PGDH luciferase fusion construct in Vaco503 reporter cell line; test: 15-PGDH-luciferase fusion gene reporter induction, V503 cells; assay type: cell-based; settings: read-out: V503-3H9-7 reporter activity, % ([…]), V503 reporter cells, […] compound, % induction of luciferase activity over basal level
A549 cells [5] = test: PGE2 levels in the medium of IL1-beta stimulated A549 cells; assay type: cell-based; settings: for Decrease PGE-2 (IL-1beta-A549, %): media of IL-1beta stimulated A549 cells;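 as to all read-outs here: PGE2 in the collected culture medium quantified by enzyme immunoassay (ELISA), with data drawn from three independent experiments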
A549 cells [6] = test: Cellular toxicity on A549 cells (CellTiter-Glo); assay type: cell-based; parameters: Decrease Cell viability in A549 cell (%): concentration or dose not given beside the values; settings: for Decrease Cell viability in A549 cell (%): A549 cells
[7] = Metabolic stability with murine liver S9; assay type: in vitro ADME
Procedure: SW054384 (2 mM in DMSO) was incubated with Murine S9 (Lot KWB) fraction and Phase I (NADPH Regenerating System) cofactors for 0-240 minutes. Reactions were quenched with a 1 mL (1:1) of MeOH/(+)IS/0.2% Formic Acid, vortexed for 15 seconds, incubated at RT for 10 minutes and spun for 5 minutes at 2400 rpms. […] Supernatant (800 μL) was transferred to an HPLC vial (w/out insert) and analyzed by HPLC/MS. A: dH2O+0.1% FA B: MeOH+0.1% FA
SW125991 (2 mM in DMSO) was incubated with Murine S9 (Lot KWB) fraction and Phase I (NADPH Regenerating System) cofactors for 0-240 minutes. Reactions were quenched with 1 mL (1:1) of methanol containing 0.2% formic acid and 100 ng/ml IS (IS final conc.=50 ng/ml). Samples were vortexed for 15 seconds, incubated at RT for 10 minutes and spun for 5 minutes at 2400 rpm. […] Supernatant (800 μL) was transferred to an HPLC vial (w/out insert). Analyzed by Qtrap 3200 mass spectrometer.

15-PGDH mRNA = 15-PGDH mRNA levels by real-time PCR; assay type: cell-based; settings: treated colon cancer cell lines
[8] = tested on: 15-PGDH-luciferase fusion reporter in V9m, LS174T and V503 cells; test: 15-PGDH-luciferase fusion gene reporter induction, stated for the three cell line backgrounds together; assay type: cell-based; settings: for induction of 15-PGDH-luciferase reporter in cell lines (SW054384 analogues): […] and […]
15-PGDH protein = 15-PGDH protein (Homo sapiens (Human), UniProt P15428); test: Inhibition of enzymatic activity of recombinant 15-PGDH in vitro (tritium transfer from PGE2 or NADH fluorescence); assay type: biochemical; settings: recombinant 15-PGDH in vitro; read-out: Enzyme inhibition (IC50)
Chain of 15-PGDH protein (P15428 whole entry): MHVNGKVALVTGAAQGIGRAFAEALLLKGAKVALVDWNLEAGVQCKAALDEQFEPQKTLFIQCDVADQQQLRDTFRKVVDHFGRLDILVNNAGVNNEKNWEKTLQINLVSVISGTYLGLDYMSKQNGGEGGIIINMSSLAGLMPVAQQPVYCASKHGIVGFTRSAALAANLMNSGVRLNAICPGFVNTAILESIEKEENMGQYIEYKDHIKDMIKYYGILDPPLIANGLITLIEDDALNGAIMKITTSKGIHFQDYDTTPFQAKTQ

[9] = read-out: Ls174T-SC1 reporter activity, % ([…]), LS174T reporter cells, […] compound, % induction of luciferase activity over basal level, read-out: Ls174T-SC1 reporter activity, % (2.5 μM)
[10] = read-out: Ls174T-SC1 reporter activity, % ([…]), LS174T reporter cells, […] compound, % induction of luciferase activity over basal level, read-out: Ls174T-SC1 reporter activity, % (7.5 μM)
[11] = read-out: V9M-SC3 Reporter activity ([…]) (%), V9m reporter cells, […] compound, read-out: V9M-SC3 Reporter activity (2.5 μM) (%)
[12] = read-out: V9M-SC3 Reporter activity ([…]), %, V9m reporter cells, […] compound, read-out: V9M-SC3 Reporter activity (7.5 μM), %
[13] = read-out: V503-3H9-7 reporter activity, % (2.5 μM)
[14] = read-out: V503-3H9-7 reporter activity, % (7.5 μM)

Row | SMILES | activation at […] [2, 9] [%] | activation at […] [2, 10] [%] | activation at […] [3, 11] [%] | activation at […] [3, 12] [%] | activation at […] [4, 13] [%] | activation at […] [4, 14] [%] | Decrease PGE-2 (IL-1beta-A549, %) (A549 cells [5]) [%] | Decrease Cell viability in A549 cell (%) (A549 cells [6]) | induction of 15-PGDH-luciferase reporter in cell lines (SW054384 analogues) [8] | also measured
1 | CCCCC[C@H](O)/C=C/[C@H]1[C@H](O)CC(=O)[C@@H]1C/C=C\CCCC(=O)O [PGE2, prostaglandin E2] | – | – | – | – | – | – | – | – | – | increase in bone marrow derived colonies relative to SW033291 [1]: lesser increase
2 | COc1ccc(OC)c(N(CC(=O)N2CCOCC2)S(=O)(=O)c2ccccc2)c1 [SW125991] | 67.3 | 83.3 | 77.4 | 74.6 | 161 | 149 | 31.33 | −2.13 | – | lowering of PGE2 levels in media (A549 cells [5]): show activity in lowering PGE2; toxicity by CellTiter-Glo (A549 cells [6]; 24 hours): no toxicity; metabolic stability [7]: marked improvement in metabolic stability; half-life ([7]; mouse, liver S9 fraction, Murine S9 fraction, Phase I cofactors, 0-240 minutes): 3.4 h
3 | O=C(c1ccc2nc(-c3ccccc3)c(-c3ccccc3)nc2c1)N1CCCCC1 [SW145753] | – | – | – | – | – | – | – | – | – | 15-PGDH mRNA levels (real-time PCR) (15-PGDH mRNA): do not in general alter 15-PGDH mRNA levels; luciferase activity of cells expressing 15-PGDH luciferase fusion construct ([8]; V9m, LS174T, V503, FIG. 1): increase luciferase activity; PGE2 levels in medium (A549 cells [5]; IL1-beta 23 hours, compound added for the last 5 hours): clear inhibition of 15-PGDH activity
4 | COc1ccc(S(=O)(=O)N(CC(=O)Nc2cccnc2)c2cc(OC)ccc2OC)cc1 [SW202940] | 148 | 211 | 147 | 181 | 181 | 183 | 80.46 | 45.18 | active in inducing 15-PGDH-luciferase reporter activity | IC50 (15-PGDH protein): ~5 µM
5 | COc1ccc(OC)c(N(CC(=O)Nc2csnc2C)S(=O)(=O)c2ccccc2)c1 [SW203703] | 85.8 | 80.2 | 108 | 106 | 143 | 78 | 31.90 | −1.97 | active in inducing the 15-PGDH-luciferase reporter | lowering of PGE2 levels in media (A549 cells [5]): show activity in lowering PGE2
6 | COc1ccc(OC)c(N(CC(=O)Nc2cc(C)no2)S(=O)(=O)c2ccccc2)c1 [SW203704] | 8.64 | 12.5 | 8.71 | 8.04 | 52.8 | 37.8 | 22.33 | −2.70 | active in inducing the 15-PGDH-luciferase reporter | –
7 | CCCC[S+]([O-])c1sc2nc(-c3nccs3)ccc2c1N (stereo not drawn) [SW206992, 2-(butylsulfinyl)-6-(thiazol-2-yl)thieno[2,3-b]pyridin-3-amine] | – | – | – | – | – | – | – | – | – | exposure needed to induce maximal reporter induction ([8]; 24 hours, three cell line backgrounds): > 1000 nM; Concentration for Full Cell Line Reporter Induction ([8]; maximal induction of reporter, Table 3): >1 µM; compound concentration at maximal effect on PGE2 (A549 cells [5]; IL-1β 16 h, compound 8 h): 2.5 µM; effect on CellTitre-Glo levels (A549 cells [6]; 24 hours, concentrations of up to 10 uM): No effect on CellTitre-Glo levels; Toxicity (A549 cells [6]; concentration needed to decrease cell numbers in a cell culture assay, Table 3): >7.5 µM
8 | CCCCC(C)(C)[C@H](O)/C=C/[C@H]1[C@H](O)CC(=O)[C@@H]1C/C=C\CCCC(=O)O [dmPGE2, 16,16-dimethyl PGE2] | – | – | – | – | – | – | – | – | – | increase in bone marrow derived colonies relative to SW033291 [1]: slightly greater increase
